Values quoted from earlier work as cited in US9034830B2, “Methods and compositions for sustained delivery of drugs” (INTRATUS, INC., priority 2009, dated 2015).

Test system: patients

## Brc1c(NC2=NCCN2)ccc2nccnc12 [Brimonidine]
0.2% eye drop, FDA clinical data
  more patients who had to discontinue due to lack of clinical effect: 30%
Eye drop, dosed at least two times a day
  drop in intraocular pressure: ~24%
Eye drop, per FDA data
  patients with side-effects (itching, redness, intolerance) necessitating stoppage of the drug: up to 20%
